The values that follow come from ChEMBL document CHEMBL6127128, “Discovery of the First-in-Class Dual-Target ROCK/HDAC Inhibitor with Potent Antitumor Efficacy in Vivo That Trigger Antitumor Immunity” (J Med Chem, 2024).

The subject of data set [1] is 4T1. Kind of data set: Antitumor immunity against mouse 4T1 cells implanted in Balb/c mouse assessed as increase in CD86+ dendritic cells in tumor tissue at 50 mg/kg, po administered daily for 15 days by immunohistochemistry relative to SAHA. Type of data set: functional. The note with it: time 15 day.
Data set [2] deals with T1, Histone deacetylase 8 (Homo sapiens, UniProt Q9BY41).
T1 sequence (Q9BY41 whole entry): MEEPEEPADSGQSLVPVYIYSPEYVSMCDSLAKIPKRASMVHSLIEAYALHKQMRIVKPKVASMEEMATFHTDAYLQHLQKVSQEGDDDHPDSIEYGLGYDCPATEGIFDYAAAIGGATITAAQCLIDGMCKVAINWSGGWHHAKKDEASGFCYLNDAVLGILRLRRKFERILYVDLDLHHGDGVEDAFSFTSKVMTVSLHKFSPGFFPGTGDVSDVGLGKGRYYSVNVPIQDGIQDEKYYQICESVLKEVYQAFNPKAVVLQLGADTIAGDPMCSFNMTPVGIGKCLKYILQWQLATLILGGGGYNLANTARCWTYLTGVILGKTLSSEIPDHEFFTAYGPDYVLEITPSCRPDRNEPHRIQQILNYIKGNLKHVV
Briefly: Inhibition of HDAC8 (unknown origin) using Ac-Leu-Gly-Lys(tfa)-AMC as substrate preincubated for 5 mins followed by substrate addition for 30 mins and measured following trypsin addition for 30 mins by fluorescence based analysis.

The target in data set [3] is T2, Protein deacetylase HDAC6 (Homo sapiens, UniProt Q9UBN7).
T2 sequence (Q9UBN7 whole entry): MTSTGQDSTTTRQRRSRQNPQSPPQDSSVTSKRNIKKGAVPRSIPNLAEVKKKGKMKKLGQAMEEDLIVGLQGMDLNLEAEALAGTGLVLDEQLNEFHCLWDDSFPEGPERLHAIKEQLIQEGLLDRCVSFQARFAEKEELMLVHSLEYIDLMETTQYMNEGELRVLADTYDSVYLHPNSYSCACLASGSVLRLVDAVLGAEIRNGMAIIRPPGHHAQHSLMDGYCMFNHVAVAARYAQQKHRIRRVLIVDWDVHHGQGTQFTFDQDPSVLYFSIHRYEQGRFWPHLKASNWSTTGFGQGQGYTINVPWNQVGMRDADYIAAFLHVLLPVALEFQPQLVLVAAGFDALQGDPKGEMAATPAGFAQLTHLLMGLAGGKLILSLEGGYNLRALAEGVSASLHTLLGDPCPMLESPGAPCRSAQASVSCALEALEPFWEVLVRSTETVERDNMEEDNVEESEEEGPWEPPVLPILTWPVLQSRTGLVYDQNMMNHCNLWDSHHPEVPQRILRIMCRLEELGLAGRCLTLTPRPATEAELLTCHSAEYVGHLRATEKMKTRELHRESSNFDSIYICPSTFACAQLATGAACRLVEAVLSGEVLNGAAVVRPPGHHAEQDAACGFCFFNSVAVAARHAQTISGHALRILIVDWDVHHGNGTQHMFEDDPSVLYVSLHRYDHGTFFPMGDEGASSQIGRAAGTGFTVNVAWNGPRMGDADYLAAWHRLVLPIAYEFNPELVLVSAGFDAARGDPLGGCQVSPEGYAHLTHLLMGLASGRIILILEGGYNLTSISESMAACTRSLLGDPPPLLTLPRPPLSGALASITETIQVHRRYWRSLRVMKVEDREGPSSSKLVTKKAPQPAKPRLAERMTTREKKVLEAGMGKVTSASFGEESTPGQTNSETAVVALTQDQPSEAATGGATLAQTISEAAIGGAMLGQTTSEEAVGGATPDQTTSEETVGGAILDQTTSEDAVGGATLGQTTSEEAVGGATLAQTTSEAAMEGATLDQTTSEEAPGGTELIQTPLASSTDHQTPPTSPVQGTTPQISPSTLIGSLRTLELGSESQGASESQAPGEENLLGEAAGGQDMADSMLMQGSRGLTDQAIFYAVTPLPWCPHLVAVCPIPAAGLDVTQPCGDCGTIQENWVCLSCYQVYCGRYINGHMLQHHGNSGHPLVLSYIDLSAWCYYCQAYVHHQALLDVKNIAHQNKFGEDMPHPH
Kind of data set: Inhibition of HDAC6 (unknown origin) using Ac-Leu-Gly-Lys(Ac)-AMC as substrate preincubated for 5 mins followed by substrate addition for 30 mins and measured following trypsin addition for 30 mins by fluorescence based analysis.

Data set [4] deals with 4T1. Briefly: Antitumor immunity against mouse 4T1 cells implanted in Balb/c mouse assessed as increase in CD4+ T cells in tumor tissue at 50 mg/kg, po administered daily for 15 days by flow cytometry relative to SAHA. The class given is functional. The note with it: time 15 day. (Flow cytometry measures light scatter and fluorescence of single cells or particles in a stream.)

A short description of data set [5]: Chemical stability of the compound in PBS buffer at pH 7.4 measured after 10 days. Type of data set: physicochemical. The note with it: time 10 day, read-out: Stability.
Data set [6] addresses Histone deacetylase 2 (Homo sapiens, UniProt Q92769). Kind of data set: Inhibition of HDAC2 (unknown origin) using Ac-Leu-Gly-Lys(Ac)-AMC as substrate preincubated for 5 mins followed by substrate addition for 30 mins and measured following trypsin addition for 30 mins by fluorescence based analysis.
Data set [7] in a line: Toxicity against Balb/c mouse implanted with mouse 4T1 cells assessed as effect on morphological changes in spleen at 25 to 50 mg/kg, po administered daily for 15 days by Hematoxylin-Eosin staining based analysis. The class given is organism-based. The note with it: in vivo, 360 h, dose 25-50 mg/kg, time 15 day.
For data set [8], the system named is MDA-MB-231. Kind of data set: Induction of immunogenic cell death-associated DAMP release in human MDA-MB-231 cells assessed as increase in CRT expression level by measuring increase in green fluorescence intensity at 1 to 10 uM incubated for 24 hrs by DAPI staining based immunofluorescence analysis. Type of data set: functional. The note with it: dose 1-10 µM.

Data set [9] deals with Histone deacetylase 3 (Homo sapiens, UniProt O15379). Briefly: Inhibition of HDAC3 (unknown origin) using Ac-Leu-Gly-Lys(Ac)-AMC as substrate preincubated for 5 mins followed by substrate addition for 30 mins and measured following trypsin addition for 30 mins by fluorescence based analysis.
For data set [10], the system named is 4T1. Briefly: Antitumor immunity against mouse 4T1 cells implanted in Balb/c mouse assessed as increase in CD3+ T cells in tumor tissue at 25 mg/kg, po administered daily for 15 days by flow cytometry. The class given is functional, organism-based. The note with it: time 15.0 day.
The target in data set [11] is Rho-associated protein kinase 1 (Homo sapiens, UniProt Q13464). Briefly: Inhibition of N-terminal GST-tagged human recombinant ROCK1 (17 to 535 residues) expressed in baculovirus-infected Sf9 cells by HTRF KinEASE assay. (In general: In TR-FRET formats the signal depends on donor and acceptor labels being close together.)
For data set [12], the system named is 4T1. Kind of data set: Cytotoxicity against mouse 4T1 cells assessed as reduction in cell viability. The class given is functional, cell-based.
Data set [13] relates to Mus musculus. Kind of data set: Induction of immunogenic cell death-associated DAMP release in tumor of Balb/c mouse implanted with mouse 4T1 cells assessed as increase in CRT expression at 25 to 50 mg/kg, po administered daily for 15 days by immunofluorescence analysis. Type of data set: functional, organism-based. The note with it: dose 25-50 mg/kg, time 15.0 day.
For data set [14], the target named is Histone deacetylase 5 (Homo sapiens, UniProt Q9UQL6). Kind of data set: Inhibition of HDAC5 (unknown origin) using Ac-Leu-Gly-Lys(tfa)-AMC as substrate preincubated for 5 mins followed by substrate addition for 30 mins and measured following trypsin addition for 30 mins by fluorescence based analysis.
Data set [15] can be described thus: AUC (0 to infinity) in Balb/c mouse at 1 mg/kg, iv measured for 24 hrs by LC-MS/MS analysis. Type of data set: ADME, organism-based. The note with it: in vivo.

Active and inactive are the calls of the source. No cut-off for these calls is given here.

Rho-associated protein kinase 1, sequence (Q13464 whole entry, the tested form may be a part): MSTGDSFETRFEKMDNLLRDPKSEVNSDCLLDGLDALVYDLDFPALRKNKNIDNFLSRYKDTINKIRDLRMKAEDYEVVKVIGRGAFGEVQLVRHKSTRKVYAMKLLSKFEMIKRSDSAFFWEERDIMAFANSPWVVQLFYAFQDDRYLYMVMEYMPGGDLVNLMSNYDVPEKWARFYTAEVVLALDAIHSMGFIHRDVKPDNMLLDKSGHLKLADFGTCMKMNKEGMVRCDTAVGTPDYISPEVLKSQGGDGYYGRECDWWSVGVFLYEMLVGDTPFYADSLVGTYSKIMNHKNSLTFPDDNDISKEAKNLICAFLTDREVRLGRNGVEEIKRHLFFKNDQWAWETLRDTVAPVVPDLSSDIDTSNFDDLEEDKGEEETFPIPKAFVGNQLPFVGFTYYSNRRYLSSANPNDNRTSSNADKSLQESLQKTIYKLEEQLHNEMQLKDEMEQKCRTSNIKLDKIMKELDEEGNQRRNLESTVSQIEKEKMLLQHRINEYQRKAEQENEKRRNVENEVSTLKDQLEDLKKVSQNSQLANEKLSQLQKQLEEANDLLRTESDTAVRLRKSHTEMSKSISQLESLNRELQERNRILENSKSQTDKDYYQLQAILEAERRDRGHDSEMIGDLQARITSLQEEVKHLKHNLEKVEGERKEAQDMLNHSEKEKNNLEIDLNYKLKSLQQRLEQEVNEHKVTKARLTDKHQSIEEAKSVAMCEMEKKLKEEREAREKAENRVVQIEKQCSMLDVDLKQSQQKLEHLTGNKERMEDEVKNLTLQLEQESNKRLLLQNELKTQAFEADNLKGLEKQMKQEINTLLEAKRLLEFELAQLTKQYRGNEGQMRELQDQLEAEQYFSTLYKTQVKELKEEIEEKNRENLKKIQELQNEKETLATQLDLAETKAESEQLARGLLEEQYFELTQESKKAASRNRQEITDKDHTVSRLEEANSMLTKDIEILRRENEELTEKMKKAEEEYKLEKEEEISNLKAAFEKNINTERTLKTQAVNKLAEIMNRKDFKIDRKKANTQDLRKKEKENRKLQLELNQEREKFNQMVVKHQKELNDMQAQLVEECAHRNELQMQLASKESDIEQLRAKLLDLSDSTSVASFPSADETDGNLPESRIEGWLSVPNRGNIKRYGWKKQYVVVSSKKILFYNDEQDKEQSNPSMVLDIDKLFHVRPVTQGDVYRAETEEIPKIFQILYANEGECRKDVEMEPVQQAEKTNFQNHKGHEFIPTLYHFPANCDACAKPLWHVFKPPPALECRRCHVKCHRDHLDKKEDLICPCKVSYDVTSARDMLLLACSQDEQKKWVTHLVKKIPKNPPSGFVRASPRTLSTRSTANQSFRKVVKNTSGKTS
Histone deacetylase 2, sequence (Q92769 whole entry): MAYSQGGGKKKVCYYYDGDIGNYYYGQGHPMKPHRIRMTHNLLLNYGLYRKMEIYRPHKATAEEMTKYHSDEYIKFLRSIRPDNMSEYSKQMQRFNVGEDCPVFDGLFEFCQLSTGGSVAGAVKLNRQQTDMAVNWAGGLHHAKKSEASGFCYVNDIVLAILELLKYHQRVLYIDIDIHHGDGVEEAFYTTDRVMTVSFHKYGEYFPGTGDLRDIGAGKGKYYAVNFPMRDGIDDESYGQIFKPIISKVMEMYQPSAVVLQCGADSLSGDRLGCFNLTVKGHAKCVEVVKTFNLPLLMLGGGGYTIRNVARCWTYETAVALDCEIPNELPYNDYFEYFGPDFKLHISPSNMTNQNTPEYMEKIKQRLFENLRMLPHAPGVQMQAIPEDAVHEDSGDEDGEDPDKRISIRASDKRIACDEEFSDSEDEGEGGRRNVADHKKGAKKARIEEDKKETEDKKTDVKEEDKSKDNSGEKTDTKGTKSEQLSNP
Histone deacetylase 3, sequence (O15379 whole entry): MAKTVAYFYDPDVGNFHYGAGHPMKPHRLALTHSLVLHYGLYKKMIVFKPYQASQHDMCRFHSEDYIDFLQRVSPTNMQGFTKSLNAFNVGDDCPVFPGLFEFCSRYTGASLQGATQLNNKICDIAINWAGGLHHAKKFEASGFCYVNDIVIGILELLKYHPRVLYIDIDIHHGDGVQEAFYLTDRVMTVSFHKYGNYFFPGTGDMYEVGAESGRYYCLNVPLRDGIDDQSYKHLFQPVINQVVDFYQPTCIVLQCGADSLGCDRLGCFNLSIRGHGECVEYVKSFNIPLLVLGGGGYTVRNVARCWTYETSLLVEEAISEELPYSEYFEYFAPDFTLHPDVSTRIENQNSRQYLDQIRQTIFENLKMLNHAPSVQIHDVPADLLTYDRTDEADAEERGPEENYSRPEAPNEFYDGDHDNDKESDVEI
Histone deacetylase 5, sequence (Q9UQL6 whole entry): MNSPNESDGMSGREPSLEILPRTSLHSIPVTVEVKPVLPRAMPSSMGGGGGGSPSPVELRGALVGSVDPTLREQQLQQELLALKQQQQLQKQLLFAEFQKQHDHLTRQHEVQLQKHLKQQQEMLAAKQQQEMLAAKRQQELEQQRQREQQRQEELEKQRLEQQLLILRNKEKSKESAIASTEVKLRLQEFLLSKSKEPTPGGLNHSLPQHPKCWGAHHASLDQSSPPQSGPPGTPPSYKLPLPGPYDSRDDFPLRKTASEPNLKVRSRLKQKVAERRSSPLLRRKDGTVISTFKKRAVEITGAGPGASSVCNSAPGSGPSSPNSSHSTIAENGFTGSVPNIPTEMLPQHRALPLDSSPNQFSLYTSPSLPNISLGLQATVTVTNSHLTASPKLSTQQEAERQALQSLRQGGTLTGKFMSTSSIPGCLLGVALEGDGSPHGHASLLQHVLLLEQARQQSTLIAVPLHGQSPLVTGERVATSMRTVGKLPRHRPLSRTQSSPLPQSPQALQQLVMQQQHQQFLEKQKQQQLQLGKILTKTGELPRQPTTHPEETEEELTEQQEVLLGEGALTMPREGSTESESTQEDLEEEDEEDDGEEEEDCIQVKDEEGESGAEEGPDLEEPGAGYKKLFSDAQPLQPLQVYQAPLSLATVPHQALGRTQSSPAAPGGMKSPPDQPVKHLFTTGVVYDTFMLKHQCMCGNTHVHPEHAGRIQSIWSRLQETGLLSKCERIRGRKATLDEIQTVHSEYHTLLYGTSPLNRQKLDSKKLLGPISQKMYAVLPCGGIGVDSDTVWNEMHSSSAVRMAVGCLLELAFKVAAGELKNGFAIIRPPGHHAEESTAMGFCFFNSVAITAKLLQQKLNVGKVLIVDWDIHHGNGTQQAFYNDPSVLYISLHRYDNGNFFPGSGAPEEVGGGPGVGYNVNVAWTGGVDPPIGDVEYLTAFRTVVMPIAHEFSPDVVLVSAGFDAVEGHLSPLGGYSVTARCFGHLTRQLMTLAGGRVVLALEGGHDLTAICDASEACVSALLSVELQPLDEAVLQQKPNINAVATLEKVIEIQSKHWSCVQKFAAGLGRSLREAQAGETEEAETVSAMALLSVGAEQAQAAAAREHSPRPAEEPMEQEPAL

What is called IC50 is the midpoint of a concentration-inhibition curve. Broadly, the AUC(0-inf) is the area under the concentration-time curve extrapolated to infinity. Read a high AUC(0-inf) as high exposure. In the case of `O=C(CCCCCCNC(=O)c1cc2cc(-c3cn[nH]c3)ccc2s1)NO`, the “fold change (FC)” value in data set [1] and in [4] was 1.82 in each case. Further, the IC50 came out at 7.69 nM in data set [2]; 0.41 nM in data set [3]; 8.03 nM in [6]; 6.26 nM in data set [9]; 58.2 nM in [11]; 730 nM in data set [12]. In addition, the IC50 in data set [14] was more than 10000 nM. The remaining at 240 h in data set [5] was found to be 98.5%. Also, in [7], the Activity result is listed as “Non-Toxic”. Further, the result in [8], in data set [10] and in data set [13] was Active. Also, the AUC(0-inf) in data set [15] turned out to be 89.3 ng·h/mL.
